Data on 21 molecules can be found in US12404289B2 (Gilead Sciences, Inc., priority 2020, dated 2025).

The first experiment relates to Respiratory syncytial virus (RSV) strain A2. Put plainly: RSV antiviral assay (HEp-2, 96 well). As to conditions: human respiratory syncytial virus, HEp-2, 96 h, read-out: EC50 RSV HEP2 96, HEp-2 cells, RSV A2, MOI=4, 4 days, 96 well; Table 3. It counts as cell-based.
In general, EC50 refers to the concentration needed to bring the measured effect to its halfway point. As for `C[C@H](NP(=O)(OC[C@H]1O[C@@](C#N)(c2ccc3c(N)ncnn23)[C@H](O)[C@@H]1O)Oc1ccccc1)C(=O)OCCC(C)(C)C` (stereo partly drawn) [Intermediate P8a, 3,3-dimethylbutyl ((((2R,3S,4R,5R)-5-(4-aminopyrrolo[2,1-f][1,2,4]triazin-7-yl)-5-cyano-3,4-dihydroxytetrahydrofuran-2-yl)methoxy)(phenoxy)phosphoryl)-L-alaninate], the EC50 amounted to 20.3 nM.

For `C[C@H](NP(=O)(OC[C@H]1O[C@@](C#N)(c2ccc3c(N)ncnn23)[C@H](O)[C@@H]1O)Oc1ccc(C(C)(C)C)cc1)C(=O)O[C@H]1CC[C@H](C(F)(F)F)CC1` (single isomer, unassigned) [Example 84a], the EC50 came out at 185 nM.

For the molecule `CC(C)C(=O)O[C@H]1[C@@H](OC(=O)C(C)C)[C@](C#N)(c2ccc3c(N)ncnn23)O[C@@H]1COP(=O)(N[C@@H](C)C(=O)OCCC(C)(C)C)Oc1ccc(C(C)(C)C)cc1` (stereo partly drawn) [Example 62, [(2R,3R,4R,5R)-5-(4-aminopyrrolo[2,1-f][1,2,4]triazin-7-yl)-2-[[(4-tert-butylphenoxy)-[[(1S)-2-(3,3-dimethylbutoxy)-1-methyl-2-oxo-ethyl]amino]phosphoryl]oxymethyl]-5-cyano-4-(2-methylpropanoyloxy)tetrahydrofuran-3-yl] 2-methylpropanoate], the EC50 was determined as 70.6 nM.

`CCCCCCOC(=O)[C@H](C)NP(=O)(OC[C@H]1O[C@@](C#N)(c2ccc3c(N)ncnn23)[C@H](O)[C@@H]1O)Oc1ccc(C(C)(C)C)cc1` (stereo partly drawn) [Example 120, hexyl ((((2R,3S,4R,5R)-5-(4-aminopyrrolo[2,1-f][1,2,4]triazin-7-yl)-5-cyano-3,4-dihydroxytetrahydrofuran-2-yl)methoxy)(4-(tert-butyl)phenoxy)phosphoryl)-L-alaninate]: the EC50 was 73.9 nM.

For `CCOCCOCCOC(=O)[C@H](C)NP(=O)(OC[C@H]1O[C@@](C#N)(c2ccc3c(N)ncnn23)[C@H](OC(=O)C(C)C)[C@@H]1OC(=O)C(C)C)Oc1ccc(C(C)(C)C)cc1` (stereo partly drawn) [Example 115, (2R,3R,4R,5R)-2-(4-aminopyrrolo[2,1-f][1,2,4]triazin-7-yl)-5-((((4-(tert-butyl)phenoxy)(((S)-1-(2-(2-ethoxyethoxy)ethoxy)-1-oxopropan-2-yl)amino)phosphoryl)oxy)methyl)-2-cyanotetrahydrofuran-3,4-diyl bis(2-methylpropanoate)], the EC50 came to 62.6 nM.

Consider `CCC(C)(C)COC(=O)[C@H](C)NP(=O)(OC[C@H]1O[C@@](C#N)(c2ccc3c(N)ncnn23)[C@H](O)[C@@H]1O)Oc1ccccc1` (stereo partly drawn) [Intermediate D9, 2,2-dimethylbutyl ((((2R,3S,4R,5R)-5-(4-aminopyrrolo[2,1-f][1,2,4]triazin-7-yl)-5-cyano-3,4-dihydroxytetrahydrofuran-2-yl)methoxy)(phenoxy)phosphoryl)-L-alaninate], for which the EC50 turned out to be 65.4 nM.

For `CCOC(=O)O[C@H]1[C@@H](OC(=O)OCC)[C@](C#N)(c2ccc3c(N)ncnn23)O[C@@H]1CO[P@@](=O)(N[C@@H](C)C(=O)OCC(CC)CC)Oc1ccccc1` [Example 127, 2-ethylbutyl ((S)-(((2R,3R,4R,5R)-5-(4-aminopyrrolo[2,1-f][1,2,4]triazin-7-yl)-5-cyano-3,4-bis((ethoxycarbonyl)oxy)tetrahydrofuran-2-yl)methoxy)(phenoxy)phosphoryl)-L-alaninate], the EC50 turned out to be 34.1 nM.

With `CCCCCCOC(=O)[C@H](C)NP(=O)(OC[C@H]1O[C@@](C#N)(c2ccc3c(N)ncnn23)[C@H](OC(=O)C(C)C)[C@@H]1OC(=O)C(C)C)Oc1ccc(C(C)(C)C)cc1` (stereo partly drawn) [Example 125, (2R,3R,4R,5R)-2-(4-aminopyrrolo[2,1-f][1,2,4]triazin-7-yl)-5-((((4-(tert-butyl)phenoxy)(((S)-1-(hexyloxy)-1-oxopropan-2-yl)amino)phosphoryl)oxy)methyl)-2-cyanotetrahydrofuran-3,4-diyl bis(2-methylpropanoate)], the concentration giving a half-maximal response (EC50) is 21.1 nM.

`C[C@H](NP(=O)(OC[C@H]1O[C@@](C#N)(c2ccc3c(N)ncnn23)[C@H](O)[C@@H]1O)Oc1ccc(C(C)(C)C)cc1)C(=O)OC1CCCCCCC1` (stereo partly drawn) [Example 73, cyclooctyl (2S)-2-[[[(2R,3S,4R,5R)-5-(4-aminopyrrolo[2,1-f][1,2,4]triazin-7-yl)-5-cyano-3,4-dihydroxy-tetrahydrofuran-2-yl]methoxy-(4-tert-butylphenoxy)phosphoryl]amino]propanoate]: the EC50 was determined as 552 nM.

As to `CCC(CC)COC(=O)[C@H](C)NP(=O)(OC[C@H]1O[C@@](C#N)(c2ccc3c(N)ncnn23)[C@H](O)[C@@H]1O)Oc1ccc2ccccc2c1` (single isomer, unassigned) [Intermediate S3-a], the EC50 worked out at 28.2 nM.

On to `CCC(=O)O[C@H]1[C@@H](OC(=O)CC)[C@](C#N)(c2ccc3c(N)ncnn23)O[C@@H]1CO[P@@](=O)(N[C@@H](C)C(=O)OCC(C)(C)OC)Oc1ccccc1` [Example 169, (2R,3R,4R,5R)-2-(4-aminopyrrolo[2,1-f][1,2,4]triazin-7-yl)-2-cyano-5-((((S)—(((S)-1-(2-methoxy-2-methylpropoxy)-1-oxopropan-2-yl)amino)(phenoxy)phosphoryl)oxy)methyl)tetrahydrofuran-3,4-diyl Dipropionate], for which the EC50 is 62.9 nM.

For `CCOC(=O)[C@H](C)NP(=O)(OC[C@H]1O[C@@](C#N)(c2ccc3c(N)ncnn23)[C@H](OC(=O)C(C)C)[C@@H]1OC(=O)C(C)C)Oc1ccc(C(C)C)cc1` (stereo partly drawn) [Example 64, [(2R,3R,4R,5R)-5-(4-aminopyrrolo[2,1-f][1,2,4]triazin-7-yl)-5-cyano-2-[[[[(1S)-2-ethoxy-1-methyl-2-oxo-ethyl]amino]-(4-isopropylphenoxy)phosphoryl]-oxymethyl]-4-(2-methylpropanoyloxy)tetrahydrofuran-3-yl] 2-methylpropanoate], the EC50 turned out to be 57.9 nM.

Consider `CCC(=O)O[C@@H]1[C@H](OC(=O)C(N)C(C)C)[C@@H](COP(=O)(N[C@@H](C)C(=O)OCC(CC)CC)Oc2ccccc2)O[C@@]1(C#N)c1ccc2c(N)ncnn12` (stereo in doubt) [Example 88, [(2R,3R,4R,5R)-5-(4-aminopyrrolo[2,1-f][1,2,4]triazin-7-yl)-5-cyano-2-[[[[(1S)-2-(2-ethylbutoxy)-1-methyl-2-oxo-ethyl]amino]-phenoxy-phosphoryl]oxymethyl]-4-propanoyloxy-tetrahydrofuran-3-yl] (2R)-2-amino-3-methyl-butanoate], for which the EC50 is 21.4 nM.

Consider `CCC(C)(C)COC(=O)[C@H](C)NP(=O)(OC[C@H]1O[C@@](C#N)(c2ccc3c(N)ncnn23)[C@H](OC(=O)C(C)C)[C@@H]1OC(=O)C(C)C)Oc1ccccc1` (stereo partly drawn) [Example 114, (2R,3R,4R,5R)-2-(4-aminopyrrolo[2,1-f][1,2,4]triazin-7-yl)-2-cyano-5-((((((S)-1-(2,2-dimethylbutoxy)-1-oxopropan-2-yl)amino)(phenoxy)phosphoryl)oxy)methyl)tetrahydrofuran-3,4-diyl bis(2-methylpropanoate)], for which the EC50 was determined as 61 nM.

As for `CCC(C)(C)CCOC(=O)[C@H](C)NP(=O)(OC[C@H]1O[C@@](C#N)(c2ccc3c(N)ncnn23)[C@H](OC(=O)C(C)C)[C@@H]1OC(=O)C(C)C)Oc1ccccc1` (stereo partly drawn) [Example 74, [(2R,3R,4R,5R)-5-(4-aminopyrrolo[2,1-f][1,2,4]triazin-7-yl)-5-cyano-2-[[[[(1S)-2-(3,3-dimethylpentoxy)-1-methyl-2-oxo-ethyl]amino]-phenoxy-phosphoryl]oxymethyl]-4-(2-methylpropanoyloxy)tetrahydrofuran-3-yl] 2-methylpropanoate], the EC50 was found to be 131 nM.

In the case of `CCC(CC)COC(=O)[C@H](C)NP(=O)(OC[C@H]1O[C@@](C#N)(c2ccc3c(N)ncnn23)[C@H](OC(=O)C(C)C)[C@@H]1OC(=O)C(C)C)Oc1ccc(C[C@H](NC(=O)OCc2ccccc2)C(=O)OCCC(C)C)cc1` (stereo partly drawn) [Example 72, (2R,3R,4R,5R)-2-(4-aminopyrrolo[2,1-f][1,2,4]triazin-7-yl)-5-((((4-((S)-2-(((benzyloxy)carbonyl)amino)-3-(isopentyloxy)-3-oxopropyl)phenoxy)(((S)-1-(2-ethylbutoxy)-1-oxopropan-2-yl)amino)phosphoryl)oxy)methyl)-2-cyanotetrahydrofuran-3,4-diyl bis(2-methylpropanoate)], the EC50 is 556 nM.

In the case of `CCC(CC)COC(=O)[C@H](C)NP(=O)(OC[C@H]1O[C@@](C#N)(c2ccc3c(N)ncnn23)[C@H](O)[C@@H]1O)Oc1cccc(C(C)(C)C)c1` (stereo partly drawn) [Example 68a], the EC50 amounted to 60.8 nM.

For the molecule `CCCCCCOC(=O)[C@H](Cc1ccccc1)NP(=O)(OC[C@H]1O[C@@](C#N)(c2ccc3c(N)ncnn23)[C@H](OC(=O)C(C)C)[C@@H]1OC(=O)C(C)C)Oc1ccc(C(C)(C)C)cc1` (stereo partly drawn) [Example 123, (2R,3R,4R,5R)-2-(4-aminopyrrolo[2,1-f][1,2,4]triazin-7-yl)-5-((((4-(tert-butyl)phenoxy)(((S)-1-(hexyloxy)-1-oxo-3-phenylpropan-2-yl)amino)phosphoryl)oxy)methyl)-2-cyanotetrahydrofuran-3,4-diyl bis(2-methylpropanoate)], the EC50 was found to be 63.7 nM.

In the case of `CCC(CC)COC(=O)[C@H](C)NP(=O)(OC[C@H]1O[C@@](C#N)(c2ccc3c(N)ncnn23)[C@H](OC(=O)C(C)C)[C@@H]1OC(=O)C(C)C)Oc1cccc(C(C)(C)C)c1` (stereo partly drawn) [Example 91, [(2R,3R,4R,5R)-5-(4-aminopyrrolo[2,1-f][1,2,4]triazin-7-yl)-2-[[(3-tert-butylphenoxy)-[[(1S)-2-(2-ethylbutoxy)-1-methyl-2-oxo-ethyl]amino]phosphoryl]oxymethyl]-5-cyano-4-(2-methylpropanoyloxy)tetrahydrofuran-3-yl] 2-methylpropanoate], the EC50 was found to be 194 nM.

On to `CC(C)C(=O)O[C@H]1[C@@H](OC(=O)C(C)C)[C@](C#N)(c2ccc3c(N)ncnn23)O[C@@H]1COP(=O)(N[C@@H](C)C(=O)OC1CCCCCCC1)Oc1ccc(C(C)(C)C)cc1` (single isomer, unassigned) [Example 77a], for which the EC50 stood at 194 nM.

The same experiment, now with this note: read-out: EC50 RSV HEP2 96; HEp-2 cells, RSV A2, MOI=4, 4 days, 96 well; Table 3.
In the case of `CC(C)C(=O)O[C@H]1[C@@H](OC(=O)C(C)C)[C@](C#N)(c2ccc3c(N)ncnn23)O[C@@H]1COP(=O)(N[C@@H](C)C(=O)OCCC(C)(C)C)Oc1ccccc1` (single isomer, unassigned) [Example 56a], the EC50 stood at 35.5 nM.
